Laboratory results: PMC8861431, “Tissue Pharmacokinetic Properties and Bystander Potential of Hypoxia-Activated Prodrug CP-506 by Agent-Based Modelling” (Frontiers in Pharmacology, 2022)
Where two headings read alike, the source gives them in different places.

What was measured:
[1] = system: HCT-116 cells (PORko-G, HCT-116 WT, POR-R); assay: Cellular metabolism assay (LC-MS/MS of reduced metabolites); type: in vitro ADME, human; conditions: anoxic cultures
Method: Aerobic and anoxic conditions were achieved as described above. Cells (5 x 10^5 per well) were seeded with 350 µl medium in duplicate into 24-well plates and left to attach for 2 h in a humidified 37°C incubator. A working solution of CP-506 was prepared in culture medium to achieve a 100 µM concentration in each well after the addition of a 500 µl volume. Plates were exposed to drug for 1 h in a humidified 37°C incubator. Metabolism was then halted by the addition of two-volumes of ice-cold acetonitrile containing 2 µM of internal standard for each analyte. Samples were stored at −80°C until LC-MS/MS analysis.
(§1) The LC system for tandem MS consisted of an Agilent 1200 autosampler (4°C) and binary pump, a 3.0 × 50 mm, 1.8-micron Zorbax SB-C18 column (Agilent; PN: 827975-302) and 2.1 × 7 mm guard column (Alltech, IL) maintained at 35°C, at a pressure of <400 bar and flow rate of 0.3 ml/min. The mobile phase comprised a gradient of 0.01% formic acid in 80% acetonitrile - 20% water, v/v (solvent A), and 0.01% formic acid in water (solvent B). Initial mobile phase composition was 20% solvent A and 80% solvent B, increasing to 60% A (0–3 min) then 80% A (3–5.45 min), returning to initial conditions (5.5–6 min). Post-run time was 1 min, and the total run time was […]. Mass spectrometric detection was carried out using an Agilent 6410 triple quadrupole mass spectrometer equipped with a multimode ionization (MMI) source. The mass spectrometer was operated in electrospray positive ionization mode using multiple reaction monitoring (MRM), with Q1 & Q3 set to unit resolution ([…]). The electrospray ionization parameters, optimized for the parent molecular ion ([M+H]+) abundance were: drying gas temperature 325°C, vaporiser temperature 150°C, drying gas flow 5 L/min, nebuliser pressure 50 psi, capillary voltage 1.8 kV, Delta EMV 300 V. Ultra-pure nitrogen was used as collision gas. The divert valve feature of the Agilent 6410 triple quadrupole mass spectrometer was utilised to prevent the eluate from entering the ionisation source chamber during the first 0.5 min of each run. For CP-506 samples, positively charged ions representing the [M+H]+ for CP-506 and CP-506-D8 were collisionally dissociated to form specific product ions which were monitored in MS2 (unit resolution). The MRM transition, ionization mode, collision energy, dwell time, fragmentor voltage and retention time for all compounds is provided in Supplementary Table S2. Agilent MassHunter software (v.4.04.00) was used for data acquisition and chromatographic peak integration.

[2] = Media stability studies (stirred medium without serum, 37°C); type: physicochemical; conditions: for half-life at 100 µM: 37°C, aerobic, medium without serum/cells, read-out: Half-life (T1/2) in stirred medium
Method: The stability of each compound was determined in stirred medium (without serum) maintained under aerobic conditions by the constant supply of a humidified gas mixture comprised of 21% O2, 5% CO2 with balance N2. Vials were spiked with 100 µM of the relevant compound, and samples were collected using a positive displacement pipettor for up to 3 h thereafter. The collected samples were then treated with two-volumes of ice-cold acetonitrile containing 2 µM of the relevant deuterated (D8) internal standard and stored at −80°C until LC-MS/MS analysis.
as §1

HCT-116 cell line panel = assay: Anti-proliferative IC50 assay of authentic CP-506 metabolites; type: cell-based, human
Method: Cells (700–1,000 per well) were seeded with 100 µl culture medium into 96-well plates and left to attach for 2 h in a humidified 37°C incubator. Compounds were prepared in culture medium and serially diluted (1:3) in the well volume. […] Aerobic experiments were performed under standard tissue culture conditions (21% O2), and the anoxic experiments were performed in parallel in a 5% H2/Pd catalyst anaerobic chamber (Shellab Bactron, Sheldon manufacturing Inc., Cornelius, OR) using pre-equilibrated media and plasticware. All anoxia experiments were conducted using a catalyst-scrubbed anaerobic chamber, unless otherwise specified, with gas oxygen measurements of <1 ppm O2. Cells were then washed three times and left to grow for 96 h before cell density determination using a sulforhodamine B (SRB) assay ([Vichai and Kirtikara, 2006]). To this end, the cells were fixed by layering 50 µl of trichloroacetic acid (40% w/v in MilliQ water) on top of the culture media (150 µl) in each well for 1 h at 4°C. Plates were rinsed under running tap water and stained with 50 µl of SRB (0.4% w/v in MilliQ water containing 1% v/v acetic acid) for 30 min at room temperature. Plates were rapidly destained by rinsing three times in tap water containing 1% (v/v) acetic acid. The stain was solubilized by adding 100 µl of 10 mM unbuffered Tris base to each well with gentle rocking for 1 h. Plates were read on a Biotek ELx808 Absorbance Microplate Reader at 490 nm using KC4 software. The IC50 value (concentration required to reduce staining to 50% of the untreated control on the same plate) for each compound was determined by interpolation using a 4-parameter logistic regression model.
FIGURE 3 Hypoxia-dependent metabolism of CP-506 leads to the formation of a multitude of short-lived species with variable cytotoxicity. (A) Bioreductive metabolism of CP-506 under normoxic (21% O2) and anoxic conditions (<1 ppm O2). Concentrations of CP-506 and its metabolites (CP-506H, CP-506M and CP-506M-Cl2) were quantified by mass spectrometry with reference to the appropriate deuterated (D8) internal standard. Values are the mean ± SEM for three independent experiments. (B) Stability of CP-506 metabolites in culture medium (without cells) at 37°C. Concentrations were determined by mass spectrometry using standard curves generated from authenticated stocks. […] IC50 values are the mean ± SEM of duplicate wells for three independent experiments. T-tests were performed using GraphPad Prism 8 (ns, p-value > 0.05; *, p-value ≤ 0.05; **, p-value ≤ 0.01; ***, p-value ≤ 0.001).

[3] = ref Hicks et al., 2007; Foehrenbacher et al., 2013a, 2013b; cited from earlier work
[4] = ref Guise et al., 2010; cited from earlier work
POR-R MCLs = conditions: established value for the internal standard; ref Wilson et al., 2004; cited from earlier work
[5] = stirred medium without serum or cells

## CCN1CCN(C(=O)c2cc(N(CCO)CCO)c(S(C)(=O)=O)cc2NO)CC1 [CP-506H-(OH)2, (5-(Bis(2-hydroxyethyl)amino)-2-(hydroxyamino)-4-(methylsulfonyl)phenyl)(4-ethylpiperazin-1-yl)methanone]
[1]
  Detection of metabolite in anoxic cultures: undetectable
[2]; [5]
  half-life at 100 µM: 0.0417 h

## CCN1CCN(C(=O)c2cc(N(CCCl)CCCl)c(S(C)(=O)=O)cc2NO)CC1 [CP-506H-Cl2, (5-(Bis(2-chloroethyl)amino)-2-(hydroxyamino)-4-(methylsulfonyl)phenyl)(4-ethylpiperazin-1-yl)methanone]
HCT-116 cell line panel; direct exposure of monolayers to authentic metabolite, Figure 3C: 5 days, normoxic 21% O2
  Anti-proliferative IC50 of metabolite: limited potency
[2]
  half-life at 100 µM: 2.35 h
[2]; stirred medium, Figure 3B
  Fold longer half-life than CP-506H or CP-506M: ≥ 10 fold

## CCN1CCN(C(=O)c2cc(N(CCO)CCO)c(S(C)(=O)=O)cc2N)CC1 [CP-506M-(OH)2, (2-Amino-5-(bis(2-hydroxyethyl)amino)-4-(methylsulfonyl)phenyl)(4-ethylpiperazin-1-yl)methanone]
HCT-116 cell line panel; Figure 3C
  Concentration up to which the cell line panel was not sensitive: > 100 µM
[2]; [5]
  half-life at 100 µM: 6.56 h

## CS(=O)(=O)OCCN(CCBr)c1c(C(=O)NCCO)cc([N+](=O)[O-])cc1[N+](=O)[O-] [PR-104A, reference compound]
[3]
  KO2 (O2 concentration of half-maximal activation): 0.126 µM O2
[4]
  Safe human exposure levels as percent of those observed in mice: 10–29%

## N[14C](N)=O [[^14C]-urea]
POR-R MCLs
  DMCL in HCT-116 MCLs: 3.67 x 10^−7 cm^2 s^−1
